Among the data in ChEMBL document CHEMBL3638917, “Triazine derivatives” (2015) are IC50 values, retold here.

This test deals with T1, cAMP and cAMP-inhibited cGMP 3',5'-cyclic phosphodiesterase 10A (Rattus norvegicus, UniProt Q9QYJ6).
T1 sequence (Q9QYJ6 whole entry): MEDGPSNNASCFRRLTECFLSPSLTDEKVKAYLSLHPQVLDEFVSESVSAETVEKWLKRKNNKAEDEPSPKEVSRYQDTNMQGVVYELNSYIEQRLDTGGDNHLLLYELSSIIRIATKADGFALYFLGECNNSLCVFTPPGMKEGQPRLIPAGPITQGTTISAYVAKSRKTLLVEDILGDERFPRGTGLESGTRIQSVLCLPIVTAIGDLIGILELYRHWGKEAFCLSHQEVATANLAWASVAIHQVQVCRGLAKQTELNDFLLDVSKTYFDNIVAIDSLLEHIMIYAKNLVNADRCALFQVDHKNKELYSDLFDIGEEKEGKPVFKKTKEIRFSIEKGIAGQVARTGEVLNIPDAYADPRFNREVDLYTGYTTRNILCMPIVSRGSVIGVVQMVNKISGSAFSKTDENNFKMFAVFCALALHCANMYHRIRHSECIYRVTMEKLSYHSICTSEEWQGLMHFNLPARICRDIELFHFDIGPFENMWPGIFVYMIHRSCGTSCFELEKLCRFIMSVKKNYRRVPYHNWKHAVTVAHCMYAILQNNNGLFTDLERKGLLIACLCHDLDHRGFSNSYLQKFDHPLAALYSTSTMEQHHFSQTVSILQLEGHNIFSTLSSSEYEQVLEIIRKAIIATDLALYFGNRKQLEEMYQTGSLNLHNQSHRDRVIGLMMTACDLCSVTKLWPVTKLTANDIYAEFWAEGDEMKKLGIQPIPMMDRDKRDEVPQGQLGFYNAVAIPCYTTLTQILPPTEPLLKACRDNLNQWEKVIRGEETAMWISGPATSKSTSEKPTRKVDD
As to the kind of experiment: The products of Examples 1-175 were tested in the assay described below.PDE10 activity was measured using a scintillation assay (SPA-based method) similar to that previously described by Seeger, T. F. et al., Brain Research 985 (2003) 113-126. The compounds' relative activity as PDE10 inhibitors was investigated by assaying a fixed amount of enzyme in the presence of the test compound and low substrate concentration (cAMP) such that an IC50 could be determined. […] The assay is performed in a 384-well format with 50 uL assay buffer (50 mM TRIS pH 7.5; 1.3 mM MgCl2; 0.01% Brij) containing enough PDE10.

Structures are written as SMILES.

Consider `CCc1nn(C)c2c1CN(c1ncnn3c(C)nc(-c4cccc(OC)c4)c13)CC2`, for which the IC50 (as a rule, the concentration that inhibits the measured activity by half) was determined as 2.7 nM.
